Data published in US20260265242A1, “FABK INHIBITOR COMPOSITIONS” (The Texas A&M University System, priority 2023, published 2026).
Converted amounts (≈) assume the structure as drawn.

Tested on: C. difficile strain R20291
Assay: MIC determination by broth microdilution
Format: cell-based
Settings: not given

| SMILES | activity against C. difficile in MIC testing (in words) |
| --- | --- |
| O=C(NCc1nc(-c2ccc(Br)cc2)c[nH]1)Nc1nc2ccccc2s1 [Compound 6a] | inactive |

Same assay, conditions: Clostridioides difficile, R20291, 24 h, Table 1; BHI broth, 24 h anaerobic, 37° C.; read-out: R20291 MIC

| SMILES | MIC [µg/mL] |
| --- | --- |
| O=C(NCc1nc(-c2ccc(Br)cc2)c[nH]1)Nc1ncc(Sc2ccc3ccccc3n2)s1 [Compound 5h] | > 50 |
| O=C(NCc1nc(-c2ccc(Br)cc2)c[nH]1)Nc1ncc(Sc2ncccc2C(F)(F)F)s1 [Compound 5g] | 1.56 (≈ 2.81 µM) |
| O=C(NCc1nc(-c2ccc(Br)cc2)c[nH]1)Nc1ncc(Sc2ncccn2)s1 [Compound 5b] | 1.56 to 3.12 (≈ 3.19 to 6.39 µM) |
| O=C(NCc1nc(-c2ccc(Br)cc2)c[nH]1)Nc1ncc(Sc2ccc(Cl)cn2)s1 [Compound 5e] | 3.12 (≈ 5.98 µM) |

Same assay, conditions: Clostridioides difficile, R20291, 24 h, Table 2; BHI broth, 24 h anaerobic, 37° C.; read-out: R20291 MIC

| SMILES | MIC [µg/mL] |
| --- | --- |
| O=C(NCc1nc(-c2ccc(Br)cc2)c[nH]1)Nc1nc2cc(C(F)(F)F)ccc2s1 [Compound 6c] | 3.12 (≈ 6.29 µM) |
| O=C(NCc1nc(-c2ccc(Br)cc2)c[nH]1)Nc1nc2ccc(Br)cc2s1 [Compound 6g] | 50 (≈ 98.6 µM) |
| CCOc1ccc2nc(NC(=O)NCc3nc(-c4ccc(Br)cc4)c[nH]3)sc2c1 [Compound 6k] | 12.5 (≈ 26.5 µM) |

Same assay, conditions: Clostridioides difficile, R20291, 24 h, read-out: R20291 MIC

| SMILES | MIC [µg/mL] |
| --- | --- |
| O=C(NCc1nc(-c2ccc(Br)cc2)c[nH]1)Nc1nc2ccccc2s1 [Compound 6a] | > 50 |
| O=C(NCc1nc(-c2ccc(Br)cc2)c[nH]1)Nc1ncc(Sc2ccccc2)s1 [Compound 5c] | 1.56 to 3.12 (≈ 3.21 to 6.41 µM) |
| CN[C@H](CC(C)C)C(=O)N[C@H]1C(=O)N[C@@H](CC(N)=O)C(=O)N[C@H]2C(=O)N[C@H]3C(=O)N[C@H](C(=O)N[C@H](C(=O)O)c4cc(O)cc(O)c4-c4cc3ccc4O)[C@H](O)c3ccc(c(Cl)c3)Oc3cc2cc(c3O[C@@H]2O[C@H](CO)[C@@H](O)[C@H](O)[C@H]2O[C@H]2C[C@](C)(N)[C@H](O)[C@H](C)O2)Oc2ccc(cc2Cl)[C@H]1O [Vancomycin, reference compound] | 0.39 to 0.78 (≈ 0.269 to 0.538 µM) |
| O=C(NCc1nc(-c2ccc(Br)cc2)c[nH]1)Nc1ncc(Sc2ccc(Br)cc2)s1 [Compound 5d] | 25 (≈ 44.2 µM) |
| O=C(NCc1nc(-c2ccc(Br)cc2)c[nH]1)Nc1ncc(Sc2nc3ccccc3s2)s1 [Compound 5i] | > 50 |

Same assay, conditions: Clostridioides difficile, R20291, Table 3; read-out: R20291 MIC

| SMILES | MIC [µg/mL] |
| --- | --- |
| O=C(NCc1nc(-c2ccccc2)n[nH]1)Nc1ncc(Sc2ccccn2)s1 [Compound 8a] | > 50 |
| O=C(NCc1nc2ccccc2c(=O)[nH]1)Nc1ncc(Sc2ccccn2)s1 [Compound 8c] | > 50 |

Same assay, conditions: Clostridioides difficile, R20291, running text; read-out: MIC (anti-C. difficile activity)

| SMILES | MIC [µg/mL] |
| --- | --- |
| O=C(NCc1nc(-c2ccc(Br)cc2)c[nH]1)Nc1nc2ccc(OC(F)(F)F)cc2s1 [Compound 6l] | 12.5 to 25 (≈ 24.4 to 48.8 µM) |
| CS(=O)(=O)c1ccc2nc(NC(=O)NCc3nc(-c4ccc(Br)cc4)c[nH]3)sc2c1 [Compound 6f] | > 100 |
| O=C(NCc1nc(-c2ccc(Br)cc2)c[nH]1)Nc1nc2ccc(Cl)cc2s1 [Compound 6h] | 6.25 (≈ 13.5 µM) |
| O=C(NCc1nc(-c2ccc(Br)cc2)c[nH]1)Nc1nc2c(F)cc(F)cc2s1 [Compound 6j] | 12.5 (≈ 26.9 µM) |
| S=C(NCc1nc(-c2ccc(Br)cc2)c[nH]1)Nc1ncc(Sc2ccccn2)s1 [Compound 7a] | 0.39 (≈ 0.775 µM) |

Same assay, conditions: Table 2; BHI broth, 24 h anaerobic, 37° C.

| SMILES | R20291 MIC [µg/mL] |
| --- | --- |
| O=C(NCc1nc(-c2ccc(Br)cc2)c[nH]1)Nc1nc2c(C(F)(F)F)cccc2s1 [Compound 6e] | 12.5 |
| CN[C@H](CC(C)C)C(=O)N[C@H]1C(=O)N[C@@H](CC(N)=O)C(=O)N[C@H]2C(=O)N[C@H]3C(=O)N[C@H](C(=O)N[C@H](C(=O)O)c4cc(O)cc(O)c4-c4cc3ccc4O)[C@H](O)c3ccc(c(Cl)c3)Oc3cc2cc(c3O[C@@H]2O[C@H](CO)[C@@H](O)[C@H](O)[C@H]2O[C@H]2C[C@](C)(N)[C@H](O)[C@H](C)O2)Oc2ccc(cc2Cl)[C@H]1O [Vancomycin, reference compound] | 0.39 to 0.78 |
| O=C(NCc1nc(-c2ccc(Br)cc2)c[nH]1)Nc1nc2c(C(F)(F)F)cccc2s1 [Compound 6b] | 1.56 |

Same assay, conditions: unit printed as g/mL

| SMILES | MIC (anti-C. difficile activity) [µg/mL] |
| --- | --- |
| O=C(NCc1nc(-c2ccc(Br)cc2)c[nH]1)Nc1ncc(Sc2ccc(Cl)cn2)s1 [Compound 5e] | 3.12 (≈ 5.98 µM) |
| O=C(NCc1nc(-c2ccc(Br)cc2)c[nH]1)Nc1ncc(Sc2ccc(C(F)(F)F)cn2)s1 [Compound 5f] | 3.12 (≈ 5.62 µM) |
